The assay is described as follows: HCV replicon assay (luciferase) in ET (Huh-lucubineo-ET) cell line. It is filed as cell-based. The settings on record: Hepatitis C virus, inhibition of replication relative to no compound control, ET replicon cells, luciferase 48-72 hours; for inhibition at 5 µM: tested at 5 μM; for inhibition at 10 µM: tested at 10 μM, read-out: % inhition at 10 μM. Background: In antiviral work, replicon cells carry a viral genome segment that copies itself.

We go through 31 compounds from patent publication US20090197880A1 (Genelabs Technologies, Inc., priority 2007, published 2009).

As to `CCCOc1ccc(-c2cc(Cn3cc4nc(-c5ccccc5F)nc-4cn3)on2)cc1` [Compound 117, 2-(2-Fluoro-phenyl)-5-[3-(4-propoxy-phenyl)-isoxazol-5-ylmethyl]-5H-imidazo[4,5-d]pyridazine], the inhibition at 5 µM was 99.8% and the inhibition at 10 µM was 99.1%.
For `Fc1ccccc1-c1nc2cnn(Cc3cc(-c4ccc(Cl)cc4)no3)cc-2n1` [Compound 116, 5-[3-(4-Chloro-phenyl)-isoxazol-5-ylmethyl]-2-(2-fluoro-phenyl)-5H-imidazo[4,5-d]pyridazine] the same measures were 92.1% and 92.8%.
On to `FC(F)(F)c1ccc(-c2cc(Cn3cc4nc(-c5ccc6[nH]ccc6c5)nc-4cn3)on2)c(C(F)(F)F)c1` [Compound 139, 5-[3-(2,4-Bis-trifluoromethyl-phenyl)-isoxazol-5-ylmethyl]-2-(1H-indol-5-yl)-5H-imidazo[4,5-d]pyridazine], for which the inhibition at 10 µM came out at 51.1%.
Same read-out and setting: the result for `N#Cc1ccc(-c2cc(Cn3cc4nc(-c5cccc(F)c5F)nc-4cn3)on2)cc1` [Compound 213, 4-{5-[2-(2,3-Difluoro-phenyl)-imidazo[4,5-d]pyridazin-5-ylmethyl]-isoxazol-3-yl}-benzonitrile] reads 98.1%; that for `Cc1cc(CCc2ccc(-c3cc(Cn4cc5nc(-c6cccc(F)c6F)nc-5cn4)on3)cc2)cc(C)n1` [Compound 311, 2-(2,3-Difluoro-phenyl)-5-(3-{4-[2-(2,6-dimethyl-pyridin-4-yl)-ethyl]-phenyl}-isoxazol-5-ylmethyl)-5H-imidazo[4,5-d]pyridazine], 96.7%; that for `Fc1cccc(-c2nc3cnn(Cc4cc(-c5ccc(OC(F)(F)F)c(Cl)c5)no4)cc-3n2)c1F` [Compound 165, 5-[3-(3-Chloro-4-trifluoromethoxy-phenyl)-isoxazol-5-ylmethyl]-2-(2,3-difluoro-phenyl)-5H-imidazo[4,5-d]pyridazine], 79.4%.
With `Nc1nn(Cc2cc(-c3ccc(C(F)(F)F)cc3C(F)(F)F)no2)c(N)c2nc(-c3cccc(F)c3F)nc1-2` [Compound 237, 5-[3-(2,4-Bis-trifluoromethyl-phenyl)-isoxazol-5-ylmethyl]-2-(2,3-difluoro-phenyl)-5H-imidazo[4,5-d]pyridazine-4,7-diamine], the inhibition at 10 µM came out at 1.73%.
On the same count and under the same terms, the figure for `CCCOc1ccc(-c2cc(Cn3cc4nc(-c5cccc(F)c5F)nc-4cn3)no2)cc1` [Compound 243, 2-(2,3-Difluoro-phenyl)-5-[5-(4-propoxy-phenyl)-isoxazol-3-ylmethyl]-5H-imidazo[4,5-d]pyridazine] is 99.4%.
In the case of `Nc1ccccc1-c1nc2cnn(Cc3cc(-c4ccc(C(F)(F)F)cc4C(F)(F)F)no3)cc-2n1` [Compound 119, 2-{5-[3-(2,4-Bis-trifluoromethyl-phenyl)-isoxazol-5-ylmethyl]-5H-imidazo[4,5-d]pyridazine-2-yl}-phenylamine], the inhibition at 10 µM stood at 0%.
With `CCCCc1ccc(-c2cc(Cn3cc4nc(-c5cccc(F)c5F)nc-4cn3)on2)cn1` [Compound 301, 5-[3-(6-Butyl-pyridin-3-yl)-isoxazol-5-ylmethyl]-2-(2,3-difluoro-phenyl)-5H-imidazo[4,5-d]pyridazine], the inhibition at 10 µM is 97.3%.
The same measure, in the same setting: the result for `O=C(O)c1cccc(COc2ccc(-c3cc(Cn4cc5nc(-c6cccc(F)c6F)nc-5cn4)on3)cc2)c1` [Compound 159, 3-(4-{5-[2-(2,3-Difluoro-phenyl)-imidazo[4,5-d]pyridazin-5-ylmethyl]-isoxazol-3-yl}-phenoxymethyl)-benzoic Acid] reads 49.4%.
On the same count and under the same terms, the result for `COc1cc(OC(F)(F)F)ccc1-c1cc(Cn2cc3nc(-c4cccc(F)c4F)nc-3cn2)on1` [Compound 297, 2-(2,3-Difluoro-phenyl)-5-[3-(2-methoxy-4-trifluoromethoxy-phenyl)-isoxazol-5-ylmethyl]-5H-imidazo[4,5-d]pyridazine] reads 90.8%.
The same measure, in the same setting: the result for `Cc1cc(OC(F)(F)F)ccc1-c1cc(Cn2cc3nc(-c4cccc(F)c4F)nc-3cn2)on1` [Compound 177, 2-(2,3-Difluoro-phenyl)-5-[3-(2-methyl-4-trifluoromethoxy-phenyl)-isoxazol-5-ylmethyl]-5H-imidazo[4,5-d]pyridazine] reads 99.6%; that for `Fc1cccc(-c2nc3cnn(Cc4cc(-c5ccc(COc6cccnc6)cc5)no4)cc-3n2)c1F` [Compound 178, 2-(2,3-Difluoro-phenyl)-5-{3-[4-(pyridin-3-yloxymethyl)-phenyl]-isoxazol-5-ylmethyl}-5H-imidazo[4,5-d]pyridazine], 98.7%; that for `COC(=O)c1ccc(-c2cc(Cn3cc4nc(-c5cccc(F)c5F)nc-4cn3)on2)cc1` [Compound 209, 4-{5-[2-(2,3-difluoro-phenyl)-imidazo[4,5-d]pyridazin-5-ylmethyl]-isoxazol-3-yl}-benzoic acid methyl ester], 93.6%.
Turning to `Fc1cccc(-c2nc3cnn(Cc4cc(-c5cc(C(F)(F)F)cc(C(F)(F)F)c5)no4)cc-3n2)c1F` [Compound 164, 5-[3-(3,5-Bis-trifluoromethyl-phenyl)-isoxazol-5-ylmethyl]-2-(2,3-difluoro-phenyl)-5H-imidazo[4,5-d]pyridazine], the inhibition at 10 µM worked out at 90.1%.
In the case of `CCCCOc1ccc(-c2cc(Cn3cc4nc(-c5ccccc5F)nc-4cn3)on2)cc1` [Compound 106, 5-[3-(4-Butoxy-phenyl)-isoxazol-5-ylmethyl]-2-(2-fluoro-phenyl)-5H-imidazo[4,5-d]pyridazine], the inhibition at 5 µM was determined as 99.3% and the inhibition at 10 µM is 99.7%.
Regarding `FC(F)(F)c1ccc(-c2cc(Cn3cc4nc(NC5CCc6ccccc65)nc-4cn3)on2)c(C(F)(F)F)c1` (stereo not shown) [Compound 259], the inhibition at 10 µM is 50.6%.
On the same count and under the same terms, the figure for `Cc1ccc(-c2cc(Cn3cc4nc(-c5cccc(F)c5F)nc-4cn3)no2)nn1` [Compound 318, 2-(2,3-Difluoro-phenyl)-5-[5-(6-methyl-pyridazin-3-yl)-isoxazol-3-ylmethyl]-5H-imidazo[4,5-d]pyridazine] is 50%; for `Fc1cccc(-c2nc3cnn(Cc4cc(-c5ccc(OC(F)(F)C(F)F)cc5)no4)cc-3n2)c1F` [Compound 175, 2-(2,3-Difluoro-phenyl)-5-{3-[4-(1,1,2,2-tetrafluoro-ethoxy)-phenyl]-isoxazol-5-ylmethyl}-5H-imidazo[4,5-d]pyridazine] it is 99.8%.
Consider `OCCCOc1ccc(-c2cc(Cn3cc4nc(-c5cccc(F)c5F)nc-4cn3)on2)cc1` [Compound 193, 3-(4-{5-[2-(2,3-difluoro-phenyl)-imidazo[4,5-d]pyridazin-5-ylmethyl]-isoxazol-3-yl}-phenoxy)-propan-1-ol], for which the inhibition at 10 µM was determined as 76.3%.
The same measure, in the same setting: the figure for `Fc1cccc(-c2nc3cnn(Cc4cc(-c5ccc(C#CC6CC6)cc5)no4)cc-3n2)c1F` [Compound 339, 5-[3-(4-Cyclopropylethynyl-phenyl)-isoxazol-5-ylmethyl]-2-(2,3-difluoro-phenyl)-5H-imidazo[4,5-d]pyridazine] is 99.8%.
Take `COC(=O)c1cc(OC)ccc1-c1cc(Cn2cc3nc(-c4cccc(F)c4F)nc-3cn2)on1` [Compound 198, 2-{5-[2-(2,3-Difluoro-phenyl)-imidazo[4,5-d]pyridazin-5-ylmethyl]-isoxazol-3-yl}-5-methoxy-benzoic acid methyl ester]: the inhibition at 10 µM came out at 50.3%.
Still for that read-out and setting: the figure for `Nc1nn(Cc2cc(-c3ccc(C(F)(F)F)cc3F)no2)cc2nc(-c3cccc(F)c3F)nc1-2` [Compound 236, 2-(2,3-Difluoro-phenyl)-6-[3-(2-fluoro-4-trifluoromethyl-phenyl)-isoxazol-5-ylmethyl]-6H-imidazo[4,5-d]pyridazin-4-ylamine] is 76.8%; for `Fc1cccc(-c2nc3cnn(Cc4cc(-c5ccc(Br)cc5)no4)cc-3n2)c1F` [Compound 200, 5-[3-(4-bromo-phenyl)-isoxazol-5-ylmethyl]-2-(2,3-difluoro-phenyl)-5H-imidazo[4,5-d]pyridazine] it is 99.4%.
Same read-out and setting: the figure for `Fc1cccc(-c2nc3cnn(Cc4cc(-c5ccc(CCCC(F)(F)F)cc5)no4)cc-3n2)c1F` [Compound 330, 2-(2,3-Difluoro-phenyl)-5-{3-[4-(4,4,4-trifluoro-butyl)-phenyl]-isoxazol-5-ylmethyl}-5H-imidazo[4,5-d]pyridazine] is 99.7%; for `Fc1cc(-c2cc(Cn3cc4nc(-c5cccc(F)c5F)nc-4cn3)on2)ccc1OC(F)(F)F` [Compound 168, 2-(2,3-Difluoro-phenyl)-5-[3-(3-fluoro-4-trifluoromethoxy-phenyl)-isoxazol-5-ylmethyl]-5H-imidazo[4,5-d]pyridazine] it is 99.2%.
Still for that read-out and setting: the figure for `COc1ccc(-c2cc(Cn3cc4nc(-c5cccc(F)c5F)nc-4cn3)on2)c(C)c1` [Compound 171, 2-(2,3-Difluoro-phenyl)-5-[3-(4-methoxy-2-methyl-phenyl)-isoxazol-5-ylmethyl]-5H-imidazo[4,5-d]pyridazine] is 91.5%; for `CN(C)c1ccc(-c2cc(Cn3cc4nc(-c5cccc(F)c5F)nc-4cn3)on2)cc1` [Compound 208, (4-{5-[2-(2,3-Difluoro-phenyl)-imidazo[4,5-d]pyridazin-5-ylmethyl]-isoxazol-3-yl}-phenyl)-dimethyl-amine] it is 69.7%.
In the case of `FC(F)(F)c1ccc(-c2cc(Cn3cc4nc(N5CCc6ccccc6C5)nc-4cn3)on2)c(C(F)(F)F)c1` [Compound 257, 2-{5-[3-(2,4-Bis-trifluoromethyl-phenyl)-isoxazol-5-ylmethyl]-5H-imidazo[4,5-d]pyridazin-2-yl}-1,2,3,4-tetrahydro-isoquinoline], the inhibition at 10 µM worked out at 0.87%.
`CCCOc1ccc(-c2cc(Cn3cc4nc(-c5ccc(OC)cc5)nc-4cn3)on2)cc1` [Compound 138, 2-(4-Methoxy-phenyl)-5-[3-(4-propoxy-phenyl)-isoxazol-5-ylmethyl]-5H-imidazo[4,5-d]pyridazine]: the inhibition at 10 µM was found to be 48.8%.
